Assay results reported in patent US20260183275A1, “SUBSTITUTED QUINOLONE COMPOUNDS USEFUL AS INHIBITORS OF TLR9” (Bristol-Myers Squibb Company, priority 2022, published 2026).

Key:
Type in all cases: cell-based
[1] = biological target: T1, human TLR9 (Homo sapiens, UniProt Q9NR96); assay: TLR9 inhibition reporter assay (HEK-Blue cells, SEAP reporter); details: HEK-Blue cells overexpressing human TLR9; stimulated with ODN2006 5 nM; SEAP read after 22 hour; dose range 0.05 nM-50 μM
T1 construct: host or cells: HEK-Blue cells
T1 sequence (Q9NR96 26-1032): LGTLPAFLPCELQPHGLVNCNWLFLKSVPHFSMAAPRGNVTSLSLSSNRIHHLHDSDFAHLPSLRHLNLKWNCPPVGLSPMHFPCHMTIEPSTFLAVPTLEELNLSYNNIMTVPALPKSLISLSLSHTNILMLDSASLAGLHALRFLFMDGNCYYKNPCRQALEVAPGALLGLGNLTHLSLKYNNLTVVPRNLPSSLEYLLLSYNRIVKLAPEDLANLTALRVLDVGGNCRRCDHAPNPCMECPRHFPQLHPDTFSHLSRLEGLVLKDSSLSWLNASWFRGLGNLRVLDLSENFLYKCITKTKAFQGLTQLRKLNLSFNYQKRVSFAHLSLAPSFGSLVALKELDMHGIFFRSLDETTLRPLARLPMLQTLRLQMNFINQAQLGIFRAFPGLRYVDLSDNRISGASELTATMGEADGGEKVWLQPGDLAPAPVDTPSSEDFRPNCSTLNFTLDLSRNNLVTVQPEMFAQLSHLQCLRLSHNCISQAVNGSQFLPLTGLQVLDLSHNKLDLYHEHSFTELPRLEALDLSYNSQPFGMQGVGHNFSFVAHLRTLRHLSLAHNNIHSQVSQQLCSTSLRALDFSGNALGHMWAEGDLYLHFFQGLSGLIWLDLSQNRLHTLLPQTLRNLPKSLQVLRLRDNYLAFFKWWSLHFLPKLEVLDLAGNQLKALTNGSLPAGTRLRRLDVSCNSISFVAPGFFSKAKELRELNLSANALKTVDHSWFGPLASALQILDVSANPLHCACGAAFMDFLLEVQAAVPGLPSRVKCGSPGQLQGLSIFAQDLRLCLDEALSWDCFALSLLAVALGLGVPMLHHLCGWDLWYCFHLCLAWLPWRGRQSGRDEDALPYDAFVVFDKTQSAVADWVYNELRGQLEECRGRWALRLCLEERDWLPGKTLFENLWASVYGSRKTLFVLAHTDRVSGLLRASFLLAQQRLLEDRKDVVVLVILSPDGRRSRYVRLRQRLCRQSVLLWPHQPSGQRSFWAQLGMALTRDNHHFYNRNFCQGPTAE
In short: (§1)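 HEK-Blue cells with NF-κB/AP-1-driven SEAP pre-treated 30 min with compounds (0.05 nM-50 μM), then stimulated with gardiquimod 7.5 μM (TLR7), R848 15.9 μM (TLR8) or ODN2006 5 nM (TLR9). SEAP read after 22 h at 37° C; % inhibition relative to agonist+DMSO and reference-inhibitor wells.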

[2] = biological target: T2, human TLR7 (Homo sapiens, UniProt Q9NYK1); assay: TLR7 inhibition reporter assay (HEK-Blue cells, SEAP reporter); details: HEK-Blue cells overexpressing human TLR7; stimulated with gardiquimod 7.5 μM; SEAP read after 22 hour; dose range 0.05 nM-50 μM
T2 construct: host or cells: HEK-Blue cells
T2 sequence (Q9NYK1 27-1049): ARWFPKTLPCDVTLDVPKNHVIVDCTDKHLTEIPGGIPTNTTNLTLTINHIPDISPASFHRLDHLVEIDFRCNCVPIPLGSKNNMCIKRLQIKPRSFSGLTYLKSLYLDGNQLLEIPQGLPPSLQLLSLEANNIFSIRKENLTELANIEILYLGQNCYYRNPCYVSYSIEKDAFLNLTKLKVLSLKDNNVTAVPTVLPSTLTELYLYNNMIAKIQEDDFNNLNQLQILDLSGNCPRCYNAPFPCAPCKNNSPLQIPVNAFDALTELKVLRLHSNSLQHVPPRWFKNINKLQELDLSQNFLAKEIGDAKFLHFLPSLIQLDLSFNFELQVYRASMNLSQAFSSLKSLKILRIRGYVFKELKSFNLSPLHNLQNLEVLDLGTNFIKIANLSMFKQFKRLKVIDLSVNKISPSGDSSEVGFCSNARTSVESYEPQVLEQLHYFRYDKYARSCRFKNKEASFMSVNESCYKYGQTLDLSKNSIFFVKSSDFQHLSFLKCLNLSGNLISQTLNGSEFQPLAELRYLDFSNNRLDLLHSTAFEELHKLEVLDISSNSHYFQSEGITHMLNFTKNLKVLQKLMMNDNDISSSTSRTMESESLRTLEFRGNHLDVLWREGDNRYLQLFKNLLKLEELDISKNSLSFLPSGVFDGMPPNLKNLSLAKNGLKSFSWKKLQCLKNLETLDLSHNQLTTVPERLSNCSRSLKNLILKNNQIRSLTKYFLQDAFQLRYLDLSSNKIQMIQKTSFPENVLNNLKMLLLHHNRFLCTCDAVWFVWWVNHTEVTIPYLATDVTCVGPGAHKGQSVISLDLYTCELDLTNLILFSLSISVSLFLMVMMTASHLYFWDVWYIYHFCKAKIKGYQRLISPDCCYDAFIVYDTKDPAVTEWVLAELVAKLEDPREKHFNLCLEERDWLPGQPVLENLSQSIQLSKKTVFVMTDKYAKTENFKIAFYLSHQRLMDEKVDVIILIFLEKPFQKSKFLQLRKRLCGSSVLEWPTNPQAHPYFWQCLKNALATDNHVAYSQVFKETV
In short: as §1

[3] = biological target: T3, human TLR8 (Homo sapiens, UniProt Q9NR97); assay: TLR8 inhibition reporter assay (HEK-Blue cells, SEAP reporter); details: HEK-Blue cells overexpressing human TLR8; stimulated with R848 15.9 μM; SEAP read after 22 hour; dose range 0.05 nM-50 μM
T3 construct: host or cells: HEK-Blue cells
T3 sequence (Q9NR97 27-1041): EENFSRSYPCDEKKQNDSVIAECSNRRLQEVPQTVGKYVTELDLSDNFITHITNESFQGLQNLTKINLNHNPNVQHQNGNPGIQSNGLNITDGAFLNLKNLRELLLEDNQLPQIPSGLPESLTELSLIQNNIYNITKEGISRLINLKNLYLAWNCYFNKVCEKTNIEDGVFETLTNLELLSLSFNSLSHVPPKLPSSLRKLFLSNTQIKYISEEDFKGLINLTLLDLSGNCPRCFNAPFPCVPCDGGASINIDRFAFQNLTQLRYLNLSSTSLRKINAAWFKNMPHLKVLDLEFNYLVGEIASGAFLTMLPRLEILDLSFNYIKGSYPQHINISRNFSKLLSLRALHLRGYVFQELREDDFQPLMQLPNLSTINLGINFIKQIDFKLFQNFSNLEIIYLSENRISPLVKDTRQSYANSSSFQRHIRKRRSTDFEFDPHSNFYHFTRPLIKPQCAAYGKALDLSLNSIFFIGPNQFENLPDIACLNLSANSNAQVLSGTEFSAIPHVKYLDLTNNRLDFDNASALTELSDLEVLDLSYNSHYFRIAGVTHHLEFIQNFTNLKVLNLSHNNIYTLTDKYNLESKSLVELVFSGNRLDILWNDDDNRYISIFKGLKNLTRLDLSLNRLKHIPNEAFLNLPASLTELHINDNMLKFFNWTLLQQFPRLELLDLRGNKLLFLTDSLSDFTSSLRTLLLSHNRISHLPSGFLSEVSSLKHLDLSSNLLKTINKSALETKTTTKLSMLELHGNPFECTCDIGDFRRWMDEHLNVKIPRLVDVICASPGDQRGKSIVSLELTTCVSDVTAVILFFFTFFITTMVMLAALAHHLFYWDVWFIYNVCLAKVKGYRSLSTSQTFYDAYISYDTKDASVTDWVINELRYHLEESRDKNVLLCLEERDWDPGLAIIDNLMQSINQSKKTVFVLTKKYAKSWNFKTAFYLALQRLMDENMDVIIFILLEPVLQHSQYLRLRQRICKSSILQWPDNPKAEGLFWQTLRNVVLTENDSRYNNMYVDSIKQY
In short: as §1

Compound	IC50 [1]	IC50 [2]	IC50 [3]
CC(C)N1CCC(c2ccc(-c3ccc4[nH]c(=O)c(-c5cccc(C#N)c5)cc4c3)cc2)CC1 [Example 69, 3-(2-oxo-6-{4-[1-(propan-2-yl)piperidin-4-yl]phenyl}-1,2-dihydroquinolin-3-yl)benzonitrile]	75 nM	538 nM	17600 nM
CN1CCC(c2ccc(-c3ccc4[nH]c(=O)c(-c5ccc(NS(C)(=O)=O)cc5)cc4c3)cc2)CC1 [Example 70, N-(4-{6-[4-(1-methylpiperidin-4-yl)phenyl]-2-oxo-1,2-dihydroquinolin-3-yl}phenyl)methanesulfonamide]	78 nM	204 nM	≥ 50000 nM
CC(C)N1CCC(c2ccc(-c3ccc4[nH]c(=O)c(-c5ccc(S(C)(=O)=O)cc5)cc4c3)cc2)CC1 [Example 71, 3-(4-methanesulfonylphenyl)-6-{4-[1-(propan-2-yl)piperidin-4-yl]phenyl}-1,2-dihydroquinolin-2-one]	140 nM	29900 nM	9280 nM
CC(C)N1CCC(c2ccc(-c3ccc4c(c3)cc(-c3ccc(S(C)(=O)=O)cc3)c(=O)n4CCO)cc2)CC1 [Example 72, 1-(2-hydroxyethyl)-3-(4-methanesulfonylphenyl)-6-{4-[1-(propan-2-yl)piperidin-4-yl]phenyl}-1,2-dihydroquinolin-2-one]	154 nM	3580 nM	21700 nM
CC(C)N1CCC(c2ccc(-c3ccc4c(c3)cc(-c3ccccc3)c(=O)n4C)cc2)CC1 [Example 73, 1-methyl-3-phenyl-6-{4-[1-(propan-2-yl)piperidin-4-yl]phenyl}-1,2-dihydroquinolin-2-one]	219 nM	1480 nM	763 nM
CC(C)N1CCC(c2ccc(-c3ccc4c(c3)cc(-c3ccc(N(C)S(C)(=O)=O)cc3)c(=O)n4C)cc2)CC1 [Example 74, N-methyl-N-[4-(1-methyl-2-oxo-6-{4-[1-(propan-2-yl)piperidin-4-yl]phenyl}-1,2-dihydroquinolin-3-yl)phenyl]methanesulfonamide]	237 nM	12000 nM	29600 nM
CC(C)N1CCC(c2ccc(Nc3ccc4c(c3)cc(-c3ccc(S(C)(=O)=O)cc3)c(=O)n4C)cc2)CC1 [Example 75, 3-(4-methanesulfonylphenyl)-1-methyl-6-({4-[1-(propan-2-yl)piperidin-4-yl]phenyl}amino)-1,2-dihydroquinolin-2-one]	253 nM	6630 nM	≥ 50000 nM
CN1CCC(c2ccc(-c3ccc4[nH]c(=O)c(-c5ccc(S(C)(=O)=O)cc5)cc4c3)cc2)CC1 [Example 76, 3-(4-methanesulfonylphenyl)-6-[4-(1-methylpiperidin-4-yl)phenyl]-1,2-dihydroquinolin-2-one]	261 nM	2030 nM	9850 nM
CCc1c(-c2ccc(S(C)(=O)=O)cc2)c(=O)n(C)c2ccc(-c3ccc(N4CCN(C(C)C)CC4)cc3)cc12 [Example 77, 4-ethyl-3-(4-methanesulfonylphenyl)-1-methyl-6-{4-[4-(propan-2-yl)piperazin-1-yl]phenyl}-1,2-dihydroquinolin-2-one]	267 nM	10200 nM	361 nM
CN1CCC(c2ccc(-c3ccc4c(c3)cc(-c3ccc(S(C)(=O)=O)cc3)c(=O)n4C)cc2)CC1 [Example 78, 3-(4-methanesulfonylphenyl)-1-methyl-6-[4-(1-methylpiperidin-4-yl)phenyl]-1,2-dihydroquinolin-2-one]	286 nM	2120 nM	2260 nM
CCn1c(=O)c(-c2ccc(S(C)(=O)=O)cc2)cc2cc(-c3ccc(C4CCN(C(C)C)CC4)cc3)ccc21 [Example 79, 1-ethyl-3-(4-methanesulfonylphenyl)-6-{4-[1-(propan-2-yl)piperidin-4-yl]phenyl}-1,2-dihydroquinolin-2-one]	287 nM	5330 nM	25800 nM
CCCn1c(=O)c(-c2ccc(S(C)(=O)=O)cc2)cc2cc(-c3ccc(C4CCN(C(C)C)CC4)cc3)ccc21 [Example 80, 3-(4-methanesulfonylphenyl)-6-{4-[1-(propan-2-yl)piperidin-4-yl]phenyl}-1-propyl-1,2-dihydroquinolin-2-one]	298 nM	8380 nM	15100 nM
CC(=O)Nc1ccc(-c2cc3cc(-c4ccc(C5CCN(C(C)C)CC5)cc4)ccc3[nH]c2=O)cc1 [Example 81, N-[4-(2-oxo-6-{4-[1-(propan-2-yl)piperidin-4-yl]phenyl}-1,2-dihydroquinolin-3-yl)phenyl]acetamide]	309 nM	333 nM	796 nM
CC(C)N1CCC(c2ccc(-c3ccc4c(c3)cc(-c3ccc(S(C)(=O)=O)cc3)c(=O)n4CCCO)cc2)CC1 [Example 82, 1-(3-hydroxypropyl)-3-(4-methanesulfonylphenyl)-6-{4-[1-(propan-2-yl)piperidin-4-yl]phenyl}-1,2-dihydroquinolin-2-one]	312 nM	5500 nM	19100 nM
